Among the data in patent US8987195B2 (priority 2012, dated 2015) are IC50 and EC50 values, retold here.

The structures appear in SMILES notation. Like-named read-outs stand apart in the source and are kept apart here.

The target in experiment [1] is HCV NS3/4A protease genotype 1b (Hepatitis C virus genotype 1b, UniProt P26663). The experiment is described as follows: HCV NS3/4A protease time-resolved fluorescence (TRF) assay, Ki against genotype 1b. Format: biochemical. As to conditions: IC50 [gt-1b] (nM), NS3/4A genotype 1b, enzyme 0.2 nM. An outline of the steps:
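Time-resolved fluorescence readout of NS3/4A cleavage of 25 nM europium-labelled peptide over 2.5 h at room temperature, enzyme levels set for signal/background 10–30 (0.2, 0.4, 0.025 nM for 1b, A156T, 3a). Ki by IC50=Ki(1+[S]/KM).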

For another experiment, the system named is HCV genotype 1b replicon. The experiment is described as follows: HCV replicon assay, genotype 1b replicon EC50. It counts as cell-based, Hepatitis C virus. The conditions noted are these: Hepatitis C virus, genotype 1b replicon, read-out: EC50 [gt-1b]. In a few lines:
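Readout was replicon RNA copy number, by 32P-probe protection or TaqMan normalized to cellular cyclophilin A RNA, or luciferase activity for luciferase:Neo^r fusion lines. Cells were exposed to serially diluted compound for 24-48 hours without G418, then washed and lysed. EC50 derived from four-parameter fit relative to DMSO.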
A general note: A replicon is a self-replicating genome or part of one, used to study replication in cells.

One may read the IC50 as the point on the concentration scale where inhibition reaches its midpoint. As a reminder, the EC50 is the concentration at which the effect is half-maximal.

Turning to `CC1(S(=O)(=O)NC(=O)[C@@]23C[C@H]2/C=C\CCCCC[C@H](NC(=O)OC2CCCC2)C(=O)N2C[C@@]4(CCc5c(c(C(F)(F)F)nc6ccccc56)O4)C[C@H]2C(=O)N3)CC1` [Example 148, cyclopentyl [(2R,6S,12Z,13aS,14aR,16aS)-14a-{[(1-methylcyclopropyl)sulfonyl]carbamoyl}-5,16-dioxo-5′-(trifluoromethyl)-1,1′,2′,5,6,7,8,9,10,11,13a,14,14a,15,16,16a-hexadecahydrospiro[cyclopropa[e]pyrrolo[1,2-a][1,4]diazacyclopentadecine-2,3′-pyrano[2,3-c]quinolin]-6-yl]carbamate], in experiment [1] (K+ salt), the concentration for half-maximal inhibition (IC50) was found to be 0.011 nM. Moreover, the 50% effective concentration (EC50) with HCV genotype 1b replicon (K+ salt) is 0.195 nM.

Consider `Cc1nc2ccccc2c2c1O[C@@]1(C[C@H]3C(=O)N[C@]4(C(=O)NS(=O)(=O)C5(C)CC5)C[C@H]4/C=C\CCCCC[C@H](NC(=O)OC4CCCC4)C(=O)N3C1)CC2(F)F` [Example 149, cyclopentyl [(2S,6S,12Z,13aS,14aR,16aS)-1′,1′-difluoro-5′-methyl-14a-{[(1-methylcyclopropyl)sulfonyl]carbamoyl}-5,16-dioxo-1,1′,2′,5,6,7,8,9,10,11,13a,14,14a,15,16,16a-hexadecahydrospiro[cyclopropa[e]pyrrolo[1,2-a][1,4]diazacyclopentadecine-2,3′-pyrano[2,3-c]quinolin]-6-yl]carbamate], for which, in experiment [1], the concentration for half-maximal inhibition (IC50) was determined as 0.022 nM. Further, the EC50 with HCV genotype 1b replicon is 0.195 nM.

For `CC1(S(=O)(=O)NC(=O)[C@@]23C[C@H]2/C=C\CCCCC[C@H](NC(=O)OC2CCCC2)C(=O)N2C[C@@]4(CCc5c(c(C6CC6)nc6c(F)cccc56)O4)C[C@H]2C(=O)N3)CC1` [Example 150, cyclopentyl [(2R,6S,12Z,13aS,14aR,16aS)-5′-cyclopropyl-7′-fluoro-14a-{[(1-methylcyclopropyl)sulfonyl]carbamoyl}-5,16-dioxo-1,1′,2′,5,6,7,8,9,10,11,13a,14,14a,15,16,16a-hexadecahydrospiro[cyclopropa[e]pyrrolo[1,2-a][1,4]diazacyclopentadecine-2,3′-pyrano[2,3-c]quinolin]-6-yl]carbamate], the IC50 in experiment [1] amounted to 0.013 nM. The EC50 in the experiment on HCV genotype 1b replicon is 0.195 nM.

With `CC(C)COC(=O)N[C@H]1CCCCC/C=C\[C@@H]2C[C@@]2(C(=O)NS(=O)(=O)C2(C)CC2)NC(=O)[C@@H]2C[C@]3(CCc4c(c(C5CC5)nc5c(F)cccc45)O3)CN2C1=O` [Example 151, 2-methylpropyl [(2R,6S,12Z,13aS,14aR,16aS)-5′-cyclopropyl-7′-fluoro-14a-{[(1-methylcyclopropyl)sulfonyl]carbamoyl}-5,16-dioxo-1,1′,2′,5,6,7,8,9,10,11,13a,14,14a,15,16,16a-hexadecahydrospiro[cyclopropa[e]pyrrolo[1,2-a][1,4]diazacyclopentadecine-2,3′-pyrano[2,3-c]quinolin]-6-yl]carbamate], in experiment [1] (K+ salt), the IC50 stood at 0.014 nM. The EC50 in the experiment with HCV genotype 1b replicon (K+ salt) was 1.77 nM.

Turning to `COc1ccc2nc(C3CC3)c3c(c2c1)CC[C@]1(C[C@H]2C(=O)N[C@]4(C(=O)NS(=O)(=O)C5(C)CC5)C[C@H]4/C=C\CCCCC[C@H](NC(=O)OC4(C)CCC4)C(=O)N2C1)O3` [Example 152, 1-methylcyclobutyl [(2R,6S,12Z,13aS,14aR,16aS)-5′-cyclopropyl-9′-methoxy-14a-{[(1-methylcyclopropyl)sulfonyl]carbamoyl}-5,16-dioxo-1,1′,2′,5,6,7,8,9,10,11,13a,14,14a,15,16,16a-hexadecahydrospiro[cyclopropa[e]pyrrolo[1,2-a][1,4]diazacyclopentadecine-2,3′-pyrano[2,3-c]quinolin]-6-yl]carbamate], the IC50 in experiment [1] (K+ salt) was determined as 0.014 nM. The 50% effective concentration (EC50) in the experiment with HCV genotype 1b replicon (K+ salt) is 0.729 nM.

As for `COc1ccc2nc(C3CC3)c3c(c2c1)CC[C@]1(C[C@H]2C(=O)N[C@]4(C(=O)NS(=O)(=O)C5(C)CC5)C[C@H]4/C=C\CCCCC[C@H](NC(=O)OCC(C)(C)C)C(=O)N2C1)O3` [Example 153, 2,2-dimethylpropyl [(2R,6S,12Z,13aS,14aR,16aS)-5′-cyclopropyl-9′-methoxy-14a-{[(1-methylcyclopropyl)sulfonyl]carbamoyl}-5,16-dioxo-1,1′,2′,5,6,7,8,9,10,11,13a,14,14a,15,16,16a-hexadecahydrospiro[cyclopropa[e]pyrrolo[1,2-a][1,4]diazacyclopentadecine-2,3′-pyrano[2,3-c]quinolin]-6-yl]carbamate], the IC50 in experiment [1] (K+ salt) amounted to 0.014 nM. In addition, the EC50 with HCV genotype 1b replicon (K+ salt) came out at 1.86 nM.

In the case of `COc1ccc2nc(C(C)C)c3c(c2c1)CC[C@]1(C[C@H]2C(=O)N[C@]4(C(=O)NS(=O)(=O)C5(C)CC5)C[C@H]4/C=C\CCCCC[C@H](NC(=O)OCC(C)C)C(=O)N2C1)O3` [Example 154, 2-methylpropyl [(2R,6S,12Z,13aS,14aR,16aS)-9′-methoxy-14a-{[(1-methylcyclopropyl)sulfonyl]carbamoyl}-5,16-dioxo-5′-(propan-2-yl)-1,1′,2′,5,6,7,8,9,10,11,13a,14,14a,15,16,16a-hexadecahydrospiro[cyclopropa[e]pyrrolo[1,2-a][1,4]diazacyclopentadecine-2,3′-pyrano[2,3-c]quinolin]-6-yl]carbamate], the IC50 in experiment [1] was found to be 0.014 nM. For the same compound, in the experiment on HCV genotype 1b replicon, the half-maximal effective concentration (EC50) is 1 nM.

Take `COc1ccc2nc(C(C)C)c3c(c2c1)CC[C@]1(C[C@H]2C(=O)N[C@]4(C(=O)NS(=O)(=O)C5(C)CC5)C[C@H]4/C=C\CCCCC[C@H](NC(=O)OC4CCCC4)C(=O)N2C1)O3` [Example 155, cyclopentyl [(2R,6S,12Z,13aS,14aR,16aS)-9′-methoxy-14a-{[(1-methylcyclopropyl)sulfonyl]carbamoyl}-5,16-dioxo-5′-(propan-2-yl)-1,1′,2′,5,6,7,8,9,10,11,13a,14,14a,15,16,16a-hexadecahydrospiro[cyclopropa[e]pyrrolo[1,2-a][1,4]diazacyclopentadecine-2,3′-pyrano[2,3-c]quinolin]-6-yl]carbamate]: half-maximal inhibition in experiment [1] (IC50) was put at 0.015 nM. In addition, in the experiment on HCV genotype 1b replicon, the concentration for a half-maximal effect (EC50) was found to be 1.17 nM.

Compound `CC(C)OC(=O)N[C@H]1CCCCC/C=C\[C@@H]2C[C@@]2(C(=O)NS(=O)(=O)C2(C)CC2)NC(=O)[C@@H]2C[C@]3(CCc4c(c(C(F)(F)F)nc5ccccc45)O3)CN2C1=O` [Example 157, propan-2-yl [(2R,6S,12Z,13aS,14aR,16aS)-14a-{[(1-methylcyclopropyl)sulfonyl]carbamoyl}-5,16-dioxo-5′-(trifluoromethyl)-1,1′,2′,5,6,7,8,9,10,11,13a,14,14a,15,16,16a-hexadecahydrospiro[cyclopropa[e]pyrrolo[1,2-a][1,4]diazacyclopentadecine-2,3′-pyrano[2,3-c]quinolin]-6-yl]carbamate] had an IC50 in experiment [1] of 0.02 nM. Further, in the experiment on HCV genotype 1b replicon, the EC50 amounted to 1.72 nM.

The compound `CC(C)C1(OC(=O)N[C@H]2CCCCC/C=C\[C@@H]3C[C@@]3(C(=O)NS(=O)(=O)C3(C)CC3)NC(=O)[C@@H]3C[C@]4(CCc5c(c(C(F)(F)F)nc6ccccc56)O4)CN3C2=O)CC1` [Example 158, 1-(propan-2-yl)cyclopropyl [(2R,6S,12Z,13aS,14aR,16aS)-14a-{[(1-methylcyclopropyl)sulfonyl]carbamoyl}-5,16-dioxo-5′-(trifluoromethyl)-1,1′,2′,5,6,7,8,9,10,11,13a,14,14a,15,16,16a-hexadecahydrospiro[cyclopropa[e]pyrrolo[1,2-a][1,4]diazacyclopentadecine-2,3′-pyrano[2,3-c]quinolin]-6-yl]carbamate] registered an IC50 in experiment [1] of 0.02 nM. Besides, in the experiment with HCV genotype 1b replicon, the EC50 stood at 1.17 nM.

The compound `CC1(OC(=O)N[C@H]2CCCCC/C=C\[C@@H]3C[C@@]3(C(=O)NS(=O)(=O)C3(C)CC3)NC(=O)[C@@H]3C[C@]4(CCc5c(c(C(F)(F)F)nc6ccccc56)O4)CN3C2=O)CC1` [Example 159, 1-methylcyclopropyl [(2R,6S,12Z,13aS,14aR,16aS)-14a-{[(1-methylcyclopropyl)sulfonyl]carbamoyl}-5,16-dioxo-5′-(trifluoromethyl)-1,1′,2′,5,6,7,8,9,10,11,13a,14,14a,15,16,16a-hexadecahydrospiro[cyclopropa[e]pyrrolo[1,2-a][1,4]diazacyclopentadecine-2,3′-pyrano[2,3-c]quinolin]-6-yl]carbamate] returned an IC50 in experiment [1] of 0.013 nM. Besides, the 50% effective concentration (EC50) with HCV genotype 1b replicon came to 1.19 nM.

Turning to `CC(C)COC(=O)N[C@H]1CCCCC/C=C\[C@@H]2C[C@@]2(C(=O)NS(=O)(=O)C2(C)CC2)NC(=O)[C@@H]2C[C@]3(CCc4c(c(C(F)(F)F)nc5ccccc45)O3)CN2C1=O` [Example 160, 2-methylpropyl [(2R,6S,12Z,13aS,14aR,16aS)-14a-{[(1-methylcyclopropyl)sulfonyl]carbamoyl}-5,16-dioxo-5′-(trifluoromethyl)-1,1′,2′,5,6,7,8,9,10,11,13a,14,14a,15,16,16a-hexadecahydrospiro[cyclopropa[e]pyrrolo[1,2-a][1,4]diazacyclopentadecine-2,3′-pyrano[2,3-c]quinolin]-6-yl]carbamate], the IC50 in experiment [1] (K+ salt) amounted to 0.026 nM. Besides, in the experiment with HCV genotype 1b replicon (K+ salt), the EC50 turned out to be 1.82 nM.

As for `Cc1nc2ccccc2c2c1O[C@]1(CC2)C[C@H]2C(=O)N[C@]3(C(=O)CS(=O)(=O)C4(C)CC4)C[C@H]3/C=C\CCCCC[C@H](NCCC3CCCC3)C(=O)N2C1` [Example 161], the half-maximal inhibitory concentration (IC50) in experiment [1] stood at 0.138 nM. The EC50 with HCV genotype 1b replicon (GETYPE1B|GT1B) amounted to 3.02 nM.
